Assay results taken from US20260317340A1, “COMPOUNDS, COMPOSITIONS, AND METHODS OF TREATING DISORDERS” (Chengdu Anticancer Bioscience, Ltd., priority 2023, published 2026).
Read-outs that look alike come from different tables or passages of the source.

Key:
[1] = tested on: RPE-Neo or RPE-MYC or RPE-MYC expressing an EGFP-Histone 2B fusion protein; experiment: Phenotypic screening assay: arrest in mitosis, change in DNA content (polyploidy), cell death; format: cell-based; settings: 20 nM to 20 μM, 24, 48 or 72 hours
Experimental: (§1) Human cancer cell lines were obtained from ATCC and cultured in DMEM (Gibco, Cleveland, TN, USA) supplemented with 5% fetal bovine serum (Gibco), penicillin (100 U/mL)-streptomycin (100 μg/mL) (Gibco, Cat. No. 15140-122), 2 mM L-glutamine (Gibco, 200 mM solution, Cat. No. 25030081), and 1 mM sodium pyruvate (Gibco, 100 mM solution, Cat. No. 11360070) at 37° C. in a humidified incubator that was maintained at 5% CO2.
Screening was conducted as described before (Li et al. 2019). Briefly, RPE-Neo or RPE-MYC or RPE-MYC expressing an EGFP-Histone 2B fusion protein were passaged as batches of 96-well plates, 18-24 hours before exposure to the chemical compounds of the present disclosure at concentrations from 20 nM to 20 μM. At 24, 48 or 72 hours after initiation of treatment, cells were analyzed for either an arrest in mitosis or a change in DNA content by GE IN-Cell Analyzer 2000. MTT assays of cellular proliferation were performed as previously described (Li et al. 2019).
(§2) As set forth in table 2 below, an values of greater than or equal to 1 nM and less than or equal to 1.0 μM is marked “A”; a value greater than 1.00 μM and less than or equal to 10.0 μM is marked “B”; a value greater than 10.0 μM and less than or equal to 30.0 μM is marked “C”; and a value greater than 30.0 μM and less than 1000 μM is marked “D.”

RPE-Neo or RPE-MYC cells = experiment: MTT assay of cellular proliferation (proliferative arrest); format: cell-based; settings: read-out: Min. Effective conc. for Proliferative arrest (>50%)
Experimental: as §1
Screening was conducted as described before (Li et al. 2019). Briefly, RPE-Neo or RPE-MYC or RPE-MYC expressing an EGFP-Histone 2B fusion protein were passaged as batches of 96-well plates, 18-24 hours before exposure to the chemical compounds of the present disclosure at concentrations from 20 nM to 20 μM. At 24, 48 or 72 hours after initiation of treatment, cells were analyzed for either an arrest in mitosis or a change in DNA content by GE IN-Cell Analyzer 2000. MTT assays of cellular proliferation were performed as previously described (Li et al. 2019). […]
as §2

[2] = read-out: Min. Effective conc. for Along with Cell Death
[3] = ≥5%, read-out: Min. Effective conc. for Mitotic Arrest (≥5%)
[4] = ≥5%, read-out: Min. Effective conc. for Polyploidy (≥5%)

Measured: minimal effective concentration

COc1ccc(CN2C(=O)CC(c3ncc(C)o3)=Cc3ccc(-c4ccsc4)cc32)cc1 [Compound 28, 1-(4-methoxybenzyl)-4-(5-methyloxazol-2-yl)-8-(thiophen-3-yl)-1,3-dihydro-2H-benzo[b]azepin-2-one]
0.001 to 1 µM: [1]; [2] | [1]; [3] | [1]; [4] | RPE-Neo or RPE-MYC cells

COc1ccc(CN2C(=O)CC(c3ncc(C)o3)=Cc3ccc(-c4ccoc4)cc32)cc1 [Compound 29, 8-(furan-3-yl)-1-(4-methoxybenzyl)-4-(5-methyloxazol-2-yl)-1,3-dihydro-2H-benzo[b]azepin-2-one]
0.001 to 1 µM: [1]; [2] | [1]; [3] | [1]; [4] | RPE-Neo or RPE-MYC cells

COc1ccc(CN2C(=O)CC(c3ncc(C)o3)=Cc3ccc(-c4cnn(C)c4)cc32)cc1 [Compound 30, 1-(4-methoxybenzyl)-8-(1-methyl-1H-pyrazol-4-yl)-4-(5-methyloxazol-2-yl)-1,3-dihydro-2H-benzo[b]azepin-2-one]
0.001 to 1 µM: [1]; [2] | [1]; [3] | [1]; [4] | RPE-Neo or RPE-MYC cells

COc1ccc(CN2C(=O)CC(c3ncc(C)o3)=Cc3ccc(-c4ccn(C)n4)cc32)cc1 [Compound 31, 1-(4-methoxybenzyl)-8-(1-methyl-1H-pyrazol-3-yl)-4-(5-methyloxazol-2-yl)-1,3-dihydro-2H-benzo[b]azepin-2-one]
0.001 to 1 µM: [1]; [2] | [1]; [3] | [1]; [4] | RPE-Neo or RPE-MYC cells

COc1ccc(CN2C(=O)CC(c3ncc(C)o3)=Cc3ccc(-c4cncn4C)cc32)cc1 [Compound 32, 1-(4-methoxybenzyl)-8-(1-methyl-1H-imidazol-5-yl)-4-(5-methyloxazol-2-yl)-1,3-dihydro-2H-benzo[b]azepin-2-one]
0.001 to 1 µM: [1]; [2] | [1]; [3] | [1]; [4] | RPE-Neo or RPE-MYC cells

COc1ccc(CN2C(=O)CC(c3ncc(C)o3)=Cc3ccc(-c4cn[nH]c4)cc32)cc1 [Compound 33, 1-(4-methoxybenzyl)-4-(5-methyloxazol-2-yl)-8-(1H-pyrazol-4-yl)-1,3-dihydro-2H-benzo[b]azepin-2-one]
0.001 to 1 µM: [1]; [2] | [1]; [3] | [1]; [4] | RPE-Neo or RPE-MYC cells

COc1ccc(CN2C(=O)CC(c3ncc(C)o3)=Cc3ccc(-c4cnn(C5CC5)c4)cc32)cc1 [Compound 34, 8-(1-cyclopropyl-1H-pyrazol-4-yl)-1-(4-methoxybenzyl)-4-(5-methyloxazol-2-yl)-1,3-dihydro-2H-benzo[b]azepin-2-one]
0.001 to 1 µM: [1]; [2] | [1]; [3] | [1]; [4] | RPE-Neo or RPE-MYC cells

COc1ccc(CN2C(=O)CC(c3ncc(C)o3)=Cc3ccc(-c4cnn(C5CCNCC5)c4)cc32)cc1 [Compound 35, 1-(4-methoxybenzyl)-4-(5-methyloxazol-2-yl)-8-(1-(piperidin-4-yl)-1H-pyrazol-4-yl)-1,3-dihydro-2H-benzo[b]azepin-2-one]
0.001 to 1 µM: [1]; [2] | [1]; [3] | [1]; [4] | RPE-Neo or RPE-MYC cells

COc1ccc(CN2C(=O)CC(c3ncc(C)o3)=Cc3ccc(-c4cccnc4)cc32)cc1 [Compound 39, 1-(4-methoxybenzyl)-4-(5-methyloxazol-2-yl)-8-(pyridin-3-yl)-1,3-dihydro-2H-benzo[b]azepin-2-one]
0.001 to 1 µM: [1]; [2] | [1]; [3] | [1]; [4] | RPE-Neo or RPE-MYC cells

COc1ccc(CN2C(=O)CC(c3ncc(C)o3)=Cc3ccc(-c4ccncc4)cc32)cc1 [Compound 40, 1-(4-methoxybenzyl)-4-(5-methyloxazol-2-yl)-8-(pyridin-4-yl)-1,3-dihydro-2H-benzo[b]azepin-2-one]
0.001 to 1 µM: [1]; [2] | [1]; [3] | [1]; [4] | RPE-Neo or RPE-MYC cells

COc1ccc(CN2C(=O)CC(c3ncc(C)o3)=Cc3ccc(-c4ccc(F)nc4)cc32)cc1 [Compound 41, 8-(6-fluoropyridin-3-yl)-1-(4-methoxybenzyl)-4-(5-methyloxazol-2-yl)-1,3-dihydro-2H-benzo[b]azepin-2-one]
0.001 to 1 µM: [1]; [2] | [1]; [3] | [1]; [4] | RPE-Neo or RPE-MYC cells

COc1ccc(CN2C(=O)CC(c3ncc(C)o3)=Cc3ccc(-c4ccc(C5CC5)nc4)cc32)cc1 [Compound 43, 8-(6-cyclopropylpyridin-3-yl)-1-(4-methoxybenzyl)-4-(5-methyloxazol-2-yl)-1,3-dihydro-2H-benzo[b]azepin-2-one]
0.001 to 1 µM: [1]; [2] | [1]; [3] | [1]; [4] | RPE-Neo or RPE-MYC cells

COc1ccc(CN2C(=O)CC(c3ncc(C)o3)=Cc3ccc(-c4ccc(OC)nc4)cc32)cc1 [Compound 44, 1-(4-methoxybenzyl)-8-(6-methoxypyridin-3-yl)-4-(5-methyloxazol-2-yl)-1,3-dihydro-2H-benzo[b]azepin-2-one]
0.001 to 1 µM: [1]; [2] | [1]; [3] | [1]; [4] | RPE-Neo or RPE-MYC cells

COc1ccc(CN2C(=O)CC(c3ncc(C)o3)=Cc3ccc(-c4cncnc4)cc32)cc1 [Compound 46, 1-(4-methoxybenzyl)-4-(5-methyloxazol-2-yl)-8-(pyrimidin-5-yl)-1,3-dihydro-2H-benzo[b]azepin-2-one]
0.001 to 1 µM: [1]; [2] | [1]; [3] | [1]; [4] | RPE-Neo or RPE-MYC cells

COc1ccc(CN2C(=O)CC(c3ncc(C)o3)=Cc3ccc(-c4cnc(N)nc4)cc32)cc1 [Compound 47, 8-(2-aminopyrimidin-5-yl)-1-(4-methoxybenzyl)-4-(5-methyloxazol-2-yl)-1,3-dihydro-2H-benzo[b]azepin-2-one]
0.001 to 1 µM: [1]; [2] | [1]; [3] | [1]; [4] | RPE-Neo or RPE-MYC cells

COc1ccc(CN2C(=O)CC(c3ncc(C)o3)=Cc3ccc(-c4cnn(C5CCOC5)c4)cc32)cc1 (stereo not shown) [Compound 48, 1-(4-methoxybenzyl)-4-(5-methyloxazol-2-yl)-8-(1-(tetrahydrofuran-3-yl)-1H-pyrazol-4-yl)-1,3-dihydro-2H-benzo[b]azepin-2-one]
0.001 to 1 µM: [1]; [2] | [1]; [3] | [1]; [4] | RPE-Neo or RPE-MYC cells

COc1ccc(CN2C(=O)CC(c3ncc(C)o3)=Cc3ccc(-c4cnn(C5CCOCC5)c4)cc32)cc1 [Compound 49, 1-(4-methoxybenzyl)-4-(5-methyloxazol-2-yl)-8-(1-(tetrahydro-2H-pyran-4-yl)-1H-pyrazol-4-yl)-1,3-dihydro-2H-benzo[b]azepin-2-one]
0.001 to 1 µM: [1]; [2] | [1]; [3] | [1]; [4] | RPE-Neo or RPE-MYC cells

COc1ccc(CN2C(=O)CC(c3ncc(C)o3)=Cc3ccc(-c4cnn(CC(N)=O)c4)cc32)cc1 [Compound 50, 2-(4-(1-(4-methoxybenzyl)-4-(5-methyloxazol-2-yl)-2-oxo-2,3-dihydro-1H-benzo[b]azepin-8-yl)-1H-pyrazol-1-yl)acetamide]
0.001 to 1 µM: [1]; [2] | [1]; [3] | [1]; [4] | RPE-Neo or RPE-MYC cells

COc1ccc(CN2C(=O)CC(c3nnc(C4CC4)o3)=Cc3ccc(-c4cnn(CCN5CCOCC5)c4)cc32)cc1 [Compound 52, 4-(5-cyclopropyl-1,3,4-oxadiazol-2-yl)-1-(4-methoxybenzyl)-8-(1-(2-morpholinoethyl)-1H-pyrazol-4-yl)-1,3-dihydro-2H-benzo[b]azepin-2-one]
0.001 to 1 µM: [1]; [2] | [1]; [3] | [1]; [4] | RPE-Neo or RPE-MYC cells
